The text below walks through data of patent US9285358B2, “Vitro method for high throughput screening of genotoxic agents in eukaryotic cells” (ANTHEM BIOSCIENCES PVT LTD, priority 2011, dated 2016).

The structures appear in SMILES notation. Where two headings read alike, the source gives them in different places.

Data set [1] relates to HCT116-p21RLuc-GADD153hFLuc-p53Bgal cells. In words: Anthem's Genotox assay (reporter gene induction p21-RLuc, GADD153-hFLuc, p53-Bgal). The settings on record: for Anthem's Genotox assay: LEC in μg/ml (genotoxic lowest effective test concentration): at least one reporter induction above 1.5 fold threshold. As to the method:
The assay protocol standardized by us is described here. A stock of the test compound is prepared in 2% v/v solvents (including but not limited to DMSO or PBS) and this stock is used to make serial dilutions for the assay. […] The test compound is assayed for cell viability by standard cell viability/cytotoxicity assays (for example MTT assay as shown in the graphs).
The MTT assay is performed using the MTT reagent (Sigma) dissolved in PBS (5 mg/ml). Briefly, the Genotox sensor cells are incubated with ten fold serial dilutions of the test compound in a 96-well microplate. After 24 h of incubation, 10 μl of the MTT solution is added to each well of the 96-well plate and incubated for 1 hour at 37° C. The medium is discarded (in a fume hood) and 100 μl DMSO is added to the wells. The plate is shaken for 10 min and absorbance is measured at 540 nm.
For the genotoxicity assay, 16 h prior to compound treatment, the engineered Anthem's Genotox sensor cells are seeded in 96-well microplates (10,000 cells per well). […] The test compound is added in two-fold serial dilutions and the microplate is incubated at 37 C, 5% CO2 and 95% humidity for 24 or 48 h depending on the experiment requirements.
The cells are lysed after 24 or 48 h with the 60 μl of lysis buffer per well (the lysis buffer composition has been optimized at Anthem Biosciences to be compatible with luciferase and beta galactosidase assays; 50 ml of Lysis buffer contains 7.5 ml of 1M HEPES at pH 8.0, 125 μl of Triton X 100, 50 mg of Porcine gelatin, 5 ml of glycerol and 25 μl of Antifoam). For each of the luciferase assays (Renilla and Firefly luciferase) 10 μl of the lysate is used, while 30 μl of the lysate is used for the beta galactosidase assay and total protein is estimated using the remaining 10 μl of the lysate by Bradford reagent.
The Renilla luciferase assay is performed using luciferase assay buffer (0.5 M NaCl, 0.1 M Potassium phosphate buffer pH 7.2, 1 mM Di-Sodium EDTA, 1 mg/mL porcine gelatin, 50 mM Potassium iodide) containing 1 μg/well coelentrazine (1 mg/ml stock prepared in 100% methanol). The firefly luciferase assay is performed with the same luciferase assay buffer containing 100 μM D luciferin, 150 μM ATP and 80 μM Coenzyme A. The assay plate is gently shaken for 10 minutes on a microplate shaker (to fully mix the contents of each well). Then the plate is taken to the microplate reader and the luminescence data are collected from the microplates. […] The Luminiscence data are collected with an integration time of 10 seconds and a delay of 2 seconds.
The beta galactosidase assay is carried out with Z assay buffer (50 ml buffer contains 0.4265 g of Na2HPO4, 0.275 g of NaH2PO4, 500 μl of 1M KCl, 50 μl of 1M MgSO4; for every 10 ml, 27 μl of Beta mercaptoethanol is added) and the substrate […] ONPG (1 ml of 10× ONPG stock-20 mg/ml). Once the yellow colour develops, 50 μl 1M Na2CO3 is added per well and the reading is taken at A420.
The luminescence and absorbance data are transported into Microsoft excel spreadsheet and the fold change in the reporter gene expressions is calculated by normalizing with the data from vehicle treated control wells. The graph is plotted with test compound concentrations on X axis, cell viability percentage (from MTT assay) on primary Y axis and reporter gene fold induction on the secondary Y axis. […] The genotoxicity threshold is not calculated for test concentrations that result in less than 50% cell viability. […]

Data set [2] shares this test system. The settings on record: 24 h, MA: metabolic activation using S9 fraction mix.
Method: The luminescence and absorbance data are transported into Microsoft excel spreadsheet and the fold change in the reporter gene expressions is calculated by normalizing with the data from vehicle treated control wells. The graph is plotted with test compound concentrations on X axis, cell viability percentage (from MTT assay) on primary Y axis and reporter gene fold induction on the secondary Y axis. […] The genotoxic threshold is set at 1.5 fold change (i.e. 50% more than vehicle treated control). The genotoxic LEC is the lowest effective test concentration that produced at least one of the reporter gene inductions of more than 1.5 threshold. The genotoxicity threshold is not calculated for test concentrations that result in less than 50% cell viability. […]
The genotoxic potential of metabolites of test compounds is assessed by incubating the compound in the Anthem's Genotox sensor cells for 3 hours with S9 of Aroclor 1254-treated rats (1% mix), procured from Moltox, Cat #11-101.5. […]
10^3 cells were seeded per well in 100 μl of McCoy's media with 10% FBS was incubated overnight (37° C., 5% CO2, 100% humidity) in a 96-well plates (as two sets). […] The plate was gently shaken for 10 minutes on a microplate shaker and then taken to the microplate reader to obtain the luminescence reading. […]
The mark [3] stands for this setting: assay time 24 h, no metabolic activation.

Turning to `COc1cc([C@@H]2c3cc4c(cc3[C@@H](O[C@@H]3O[C@@H]5CO[C@@H](C)O[C@H]5[C@H](O)[C@H]3O)[C@H]3COC(=O)[C@H]23)OCO4)cc(OC)c1O` [Etoposide], in data set [1] (setting [3]), the “Anthem's Genotox assay: LEC in μg/ml (genotoxic lowest effective test concentration)” value (“Anthem's Genotox assay: LEC in μg/ml” below) stood at 6.25 µg/mL. Take `O=P1(N(CCCl)CCCl)NCCCO1` (stereo not shown) [Cyclophosphamide]: in data set [2], the “Anthem's Genotox assay: LEC in μg/ml” value is greater than 55.82 µg/mL and the “Anthem's Genotox assay: Result (assay time in h)” value is “+ (positive for genotoxicity)”. `Nc1ccn([C@@H]2O[C@H](CO)[C@@H](O)[C@@H]2O)c(=O)n1` [AraC arabinoside]: in data set [1], the “Anthem's Genotox assay: promoter(s) that was(were) induced” value is reported as “p21”. The same measure, in the same setting: the entry for `O=c1c(O)c(-c2ccc(O)c(O)c2)oc2cc(O)cc(O)c12` [Querceti3n] is “GADD153”. As for `CC1COc2c(N3CCN(C)CC3)c(F)cc3c(=O)c(C(=O)O)cn1c23` (stereo not shown) [Ofloxacin], the “Anthem's Genotox assay: LEC in μg/ml” value in data set [1] (setting [3]) stood at 750.0 µg/mL. The “Anthem's Genotox assay: Result (assay time in h)” value in data set [1] (assay time 24 h, no metabolic activation, positive when reporter gene induction over 1.5 fold) is “+ (positive for genotoxicity)”.
